Results reported in publication PMC7219108, “Pisum sativum Defensin 1 Eradicates Mouse Metastatic Lung Nodules from B16F10 Melanoma Cells” (International Journal of Molecular Sciences, 2020).

How the values were obtained:
[1] = tested on: Fusarium solani planktonic cells; parameters: method as in PMID 17240982; conditions: cited from earlier work
[2] = tested on: B16F10 (murine skin melanoma) cells; test: MTT cell viability, B16F10 tumor cells; type: cell-based; conditions: 24 h, two independent experiments in triplicate, p < 0.001 vs untreated
[3] = tested on: R8 (rat lymphocyte) cells; test: LDH release cell viability, healthy R8 cells; type: cell-based; conditions: 30 µM, 3 h (6 µM not tested)
[4] = tested on: A-431 (human epidermoid carcinoma) cells; test: MTT cell viability, A-431 tumor cells; type: cell-based; conditions: 24 h, p < 0.001
[5] = tested on: fungal mutants lacking glucosylceramide synthase; conditions: cited from earlier work
B16F10 cells = test: SYTOXGreen uptake (membrane permeabilization), B16F10 cells; type: cell-based, murine
Procedure: Figure 2 Psd1 promotes B16F10 live cell membrane permeabilization as monitored by SYTOX Green fluorescence. (A) Psd1 untreated and hydrogen peroxide-treated B16F10 cells. (B) A total of 1.5 × 10^4 B16F10 cells were incubated with 3 or 50 µM Psd1 for 30 min. (C) 1.5 × 10^4 B16F10 cells were incubated with 50 µM Psd1 for 1 h. All experiments were performed at 37 °C. Nucleus staining is shown in green (SYTOXGreen), and mitochondria are shown in red (MitoTracker Red CMXRos). Images are shown at 20× magnification. […] (E) Psd1 induces apoptosis in B16F10 cells. B16F10 cells were treated with 50 µM Psd1 for 24 h and labeled with propidium iodide, and the DNA content was analyzed by flow cytometry for the sub-G0/G1 profile. At least two independent experiments were performed. TEXT PRINTED IN THE PICTURE: (E) Control: Sub-G1: 4.4% | (E) Psd1: Sub-G1: 60.6% (50μM)
Images were obtained in the X, Y, and Z planes of the image, giving the image a 3-dimensional depth (Z-stack) at 100× magnification with a Zeiss Cell Observer Yokogawa Spinning Disk confocal microscope (Cell Observed SD, Carl-Zeiss, Oberkochen, Germany) located in the Microscopia Óptica de Luz Gustavo de Oliveira Castro (Plamol) platform in Universidade Federal do Rio de Janeiro. To measure the mean fluorescence intensity (MFI), Zen Lite Blue (Carl-Zeiss, Oberkochen, Germany) software was used. On average, thirty cells per field were analyzed in fourteen fields by experiments. Then, the region of interest (ROI), specifically the nucleus and mitochondria, was tagged on the cells photographed for fluorescence analysis, which is given by the software from the intensity of the pixels. Subsequently, the statistical test was performed using GraphPad Prism version 7.4, and the values presented are averages with the corresponding standard deviations (SDs).
B16F10 cells were trypsinized and counted, and 1.5 × 10^4 cells/well in DMEM containing 0.1% (w/v) bovine serum albumin BSA were plated in a cell-view glass bottom culture dish with four compartments (Thermo Fisher Scientific Inc, Maryland, USA) and then incubated at 37 °C overnight to adhere. Post-treatment, the cells were treated with 3 or 50 µM Psd1 for 30 or 60 min and maintained at the same temperature. Cells treated with only water or 0.0001% H2O2 for 30 min were used as the negative and positive controls, respectively. Washes with saline were carried out between the additions of each probe followed by incubation at room temperature. The cells were incubated with 1 µL of SG, 1.5 µL of MitoTracker Red CMXRos, and 2 µL of DAPI for 10, 20, and 10 min, respectively. The fluorescent images were acquired by confocal microscopy.

[6] = tested on: lung inflammatory cells, C57BL/6 mice; test: Lung histology (HE), inflammatory foci; type: in vivo, mouse
From the text: Figure 7 Psd1 inhibited the appearance of inflammatory cells in lung tissues. Two animals from each group of the in vivo experiment were anaesthetized and submitted to transcardial perfusion for further histological procedures. The lungs were removed and prepared for hematoxylin and eosin (HE) staining as described in the Materials and Methods. (A) Representative images from the lungs of one animal from each experimental group. […] The left and right panels indicate 10× and 20× magnifications, and the bars represent 200 and […], respectively. (B) Quantification of inflammatory infiltration (± SEM) was obtained in six fields, corresponding to 90% of the tissue. […] Values represent the mean ± SD of two independent experiments analyzed by one-way ANOVA and Bonferroni’s multiple comparison test.
After the above procedure, two animals from each group were anaesthetized and submitted to treatment with 4% paraformaldehyde in 0.1 M phosphate buffer (pH 7.4) by transcardial perfusion. The lung was removed and immersed in the same fixative solution. The lung specimens were sliced into 5 mm pieces, dehydrated through an ascending ethanol series (70, 95, and 100% ethanol for 30 min each) and then embedded in paraffin using standard procedures. Serial 5 µm-thick sections were prepared using a sliding microtome (Leica Microsystems, Wetzlar, Germany). Hematoxylin and eosin (HE) staining wereperformed to quantify possible foci of inflammatory infiltrates and fibrosis in experimental and control animals. The stained sections were observed, and digital images were taken with a Zeiss AxioPhot fluorescence microscope (Carl-Zeiss, Oberkochen, Germany). Specifically, two slices of each sample (six fields of each slice corresponding to approximately 90% of the slice) were used for quantitative analysis to obtain the mean value.

## Psd1: 46-amino acid residue plant defensin isolated from pea seeds, expressed in Pichia pastoris (PDB 1JKZ) (KTCEHLADTYRGVCFTNASCDDHCKNKAHLISGTCHNWKCFCTQNC)
[1]
  Internalization and cell cycle effect: internalized in Fusarium solani planktonic cells, directing their cell cycle impairment and causing fungal endoreduplication
[2]; 25 µM
  Reduction of B16F10 cell viability (MTT): approximately 50%
[2]; 50 µM
  Reduction of B16F10 cell viability (MTT): ~60%
[3]
  R8 cell viability (LDH release): no alteration in cell viability
[4]; 12.5 µM
  A-431 growth, result in words (MTT): decreased growth
[4]; 50 µM
  Maximum reduction of A-431 growth (MTT): 20%
[5]
  Resistance of mutants to Psd1 antifungal activity and permeabilization: partially resistant
B16F10 cells; 3 µM and 50 µM, 30 min, 37 °C
  SYTOXGreen entrance, nuclear staining: intense green nuclear staining
B16F10 cells; 50 µM, 1 h
  Cell adhesion / shape: started to lose their adhesion capacity, assuming a less spread shape
B16F10 cells; 50 µM, 1 h, 37 °C, p < 0.0001 vs 3 and 50 µM for 30 min
  SYTOXGreen fluorescence signal: increased significantly
[6]; 1 mg/kg Psd1 alone, i.v., day 21, p < 0.001 vs B16F10
  Inflammatory foci, Psd1 alone: very low inflammatory foci
[6]; 1 mg/kg Psd1 i.v. with B16F10 cells
  Number of lung inflammatory cells: near zero
[6]; 1 and 3 mg/kg Psd1 i.v. with B16F10 cells, day 21, p < 0.001 vs B16F10
  Accumulation of lung inflammatory cells: significant reduction in the accumulation of inflammatory cells
